Laboratory results from patent US11155573B2, “Bile salt hydrolase probe and method of making and using the same” (Battelle Memorial Institute, priority 2017, dated 2021).

Key:
[1] = system: human gut microbiome lysate; assay: BSH ABP labeling in human gut microbiome lysate; assay type: binding
Method: The probes were assayed for activity in human gut microbiome extracts.

BSH [2] = assay: Probe labeling of endogenous BSH in L. plantarum lysate; assay type: binding, Lactobacillus plantarum
Method: (§1) The BSH probes were then assayed for retention of function in the presence of a complex cell lysate. Purified BSH was added to an organism that is not known to endogenously express BSH to precisely control this variable. […] After confirming that the BSH-ABP is capable of labeling BSH in complex biological mixtures, application of the probe was assayed for detection of endogenous BSH. L. plantarum was used because its expression of BSH is well-documented, and this organism is found in many popular over-the-counter probiotic formulations for support of healthy cholesterol levels.

BSH [3] = target: T1, BSH (Lactiplantibacillus plantarum, UniProt Q06115); assay: BA-ABP labeling of purified BSH added to Escherichia coli bacterial lysate; assay type: binding
T1 sequence (Q06115 1-324): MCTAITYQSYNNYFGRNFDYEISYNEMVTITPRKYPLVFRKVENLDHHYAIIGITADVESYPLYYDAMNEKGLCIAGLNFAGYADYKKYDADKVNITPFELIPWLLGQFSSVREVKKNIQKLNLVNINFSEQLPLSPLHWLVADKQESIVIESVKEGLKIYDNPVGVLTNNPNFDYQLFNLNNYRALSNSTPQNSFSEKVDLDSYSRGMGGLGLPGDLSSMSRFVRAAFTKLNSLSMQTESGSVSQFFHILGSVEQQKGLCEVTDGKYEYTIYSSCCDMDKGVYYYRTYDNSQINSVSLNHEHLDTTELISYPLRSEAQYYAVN
Method: as §1

BSH [4] = assay: In vivo probe labeling in L. plantarum; assay type: cell-based, Lactobacillus plantarum
Method: as §1

[5] = target: T2, purified recombinant Lactobacillus plantarum BSH (Lactiplantibacillus plantarum, UniProt Q06115); assay: BA-ABP labeling of purified BSH; assay type: binding
T2 sequence (Q06115 1-324): T1 sequence (Q06115 1-324)
Method: Binding of BA-ABP to purified recombinant Lactobacillus plantarum BSH was assessed through incubation with probe in buffer (FIG. 18A). […] Additionally, labeling was time-dependent.

purified BSH [6] = assay: GCA and iodoacetamide competition assay; assay type: biochemical; conditions: CA-AMCA 150 μM, BSH 10 μg/ml
purified BSH [7] = conditions: read-out: Michaelis-Menten constant (Km); turnover by purified BSH, 0.1 M sodium phosphate pH 6, 37° C.
Method: Reaction volumes of 100 μL were used in Microfluor1 black flat bottom microtiter 96 well plates (Thermo Scientific). 50 μL of enzyme (40 μg/ml) in buffer (0.1 M sodium phosphate, pH=6) was added to each well. […] Reactions were immediately placed in a plate reader (SPECTRAmax Gemini XS) pre-warmed to 37° C., and reaction progress was monitored at 450 nm (excitation 350 nm) for 20 minutes. Reactions had final concentrations of 20 μg/ml enzyme, 0.1 M sodium phosphate (pH 6), and 2.5% DMSO.
The initial rate data was used for determination of Km values. For Km determination, the kinetic values were obtained directly from nonlinear regression of substrate-velocity curves in the presence of varying concentrations of BA-AMCA. The equation Y=(Vmax*X)/(Km+X*(1+X/Ki)), X=substrate concentration (μM) and Y=enzyme velocity (RFU/s); was used in the nonlinear regression. Each BA-AMCA Km value was determined using at least three independent experiments.

[8] = system: endogenously expressed BSH in L. plantarum lysate; assay: Lactobacillus plantarum lysate assay; assay type: biochemical; conditions: CAPE 2 mM
Method: Reaction volumes of 100 μL were used in Microfluor1 black flat bottom microtiter 96 well plates (Thermo Scientific). […] A 50 μL solution of probe (300 μM) in buffer with 5% DMSO was then added to initiate the reaction. Reactions were immediately placed in a plate reader (SPECTRAmax Gemini XS) pre-warmed to 37° C., and reaction progress was monitored at 450 nm (excitation 350 nm) for 20 minutes.

L. plantarum cells = assay: Whole-cell Lactobacillus plantarum assay; assay type: cell-based; conditions: varying amount of CAPE
Method: A starter culture was created by inoculation of 5 ml MRS broth from a L. plantarum colony grown on MRS agar. The starter culture was incubated overnight at 37° C. overnight. The 5 ml starter culture was then added to 95 ml fresh MRS broth and grown until the optical density at 600 nm reached 0.7. At that point, the cells were pelleted via centrifugation. The cell pellet was resuspended in 15 ml PBS, and centrifuged. The cells were additionally washed with PBS and pelleted once more. The resulting pellet was suspended in 380 μl PBS. The cell suspension was then serially diluted two-fold. […]

[9] = substrate: Cc1c(CC(=O)O)c(=O)oc2cc(NC(=O)CC[C@@H](C)[C@H]3CC[C@H]4C5[C@H](O)C[C@@H]6C[C@H](O)CC[C@]6(C)[C@H]5C[C@H](O)[C@]34C)ccc12; assay: purified protein, by the assay type; assay type: biochemical; conditions: other: individual replicate, purified BSH 20 μg/ml, 0.1 M sodium phosphate pH 6, 2.5% DMSO, 37° C., 20 min, Ex 350/Em 450 nm
Source text: Fluorescent signals for substrate turnover could be detected with as low as mid-nanomolar enzyme concentrations, which is considerably less enzyme when compared to micromolar concentrations required for conventional ninhydrin assays with purified BSH. […] Furthermore, robust signals could be reliably observed in the low micromolar substrate concentration range before any indication of substrate inhibition. Product formation was additionally confirmed through coupling of the BSH reaction to a secondary HPLC-based assay.

## C#CCNC(=O)C=CCC[C@@H](C)[C@H]1CC[C@H]2C3[C@H](O)C[C@@H]4C[C@H](O)CC[C@]4(C)[C@H]3C[C@H](O)[C@]12C (stereo partly drawn) [BA-ABP]
[1]
  labeling in gut microbiome lysate: labeling was observed
BSH [2]
  fluorescence imaging of labeling in L. plantarum lysate: a band consistent with BSH, along with several others
BSH [3]
  fluorescent gel labeling, BSH added to lysate of organism not expressing BSH: a fluorescent band that is consistent with BSH labeling, along with several other unknown targets
BSH [4]
  labeling in vivo in L. plantarum: Labeling in vivo was also confirmed
[5]
  labeling of purified BSH, time dependence: time-dependent
[5]; competition with native substrate
  labeling of purified BSH upon addition of free bile salts: could be attenuated
[5]; incubation with probe in buffer
  labeling of purified BSH, dose dependence: dose-dependent

## C[C@H](CCC(=O)NCC(=O)O)[C@H]1CC[C@H]2[C@@H]3[C@H](O)C[C@@H]4C[C@H](O)CC[C@]4(C)[C@H]3C[C@H](O)[C@]12C [glycocholic acid]
Purified BSH [6]; GCA 10 mM
  effect on CA-AMCA turnover by BSH: Attenuated activity

## Cc1c(CC(=O)O)c(=O)oc2cc(NC(=O)CC[C@@H](C)[C@H]3CC[C@H]4C5[C@H](O)C[C@@H]6C[C@H](O)CC[C@]6(C)[C@H]5C[C@H](O)[C@]34C)ccc12 (stereo partly drawn) [CA-AMCA]
Purified BSH [7]
  Km: 26 µM

## NC(=O)CI [iodoacetamide, reference compound]
Purified BSH [6]; IAA 12 mM
  effect on CA-AMCA turnover by BSH: completely ablated substrate turnover
[5]; pre-treatment before probe
  effect of pre-treatment on BA-ABP binding to BSH: Binding was ablated

## O=C(/C=C/c1ccc(O)c(O)c1)OCCc1ccccc1 [CAPE, caffeic acid phenethyl ester]
[8]
  effect on CA-AMCA turnover in L. plantarum lysate: Activity was not observed
L. plantarum cells
  effect on probe velocities in whole-cell suspension: probe velocities were consistent with the amount of CAPE added

B1: bile salt hydrolase (BSH), purified (Lactiplantibacillus plantarum WCFS1) (protein)
chain: T1 sequence (Q06115 1-324)
[9]; FIG. 8B
  Km: 31.48 µM
[9]; FIG. 8C
  Km: 22.57 µM
